One may read the EC50 as the concentration giving half of the maximal effect.

EC50 data for 21 molecules are collected here from patent publication US9499550B2 (BRISTOL-MYERS SQUIBB COMPANY, priority 2012, dated 2016).

Assay [1] concerns HCV genotype 1a (H77 strain) replicon in HUH-7 cells. As to the kind of experiment: HCV replicon luciferase reporter assay, genotype 1a. Type of assay: cell-based. The note with it: Hepatitis C virus, Huh-7, 72 h, HCV genotype 1a replicon luciferase, 3 days incubation, read-out: LE_1a (EC50, range). The method in brief: (§1)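 Replicon inhibition for both genotypes was measured as Renilla luciferase signal (EnduRen, 7.5 μM final, 2 h) after 3-day, 37° C exposure of replicon-bearing HUH-7 cells in 4% FCS DMEM, 0.5% DMSO. The 1b construct carries S1179I; the 1a H77 construct carries P1496L and S2204I. Twenty-point, 3-fold dilutions were fitted four-parametrically for EC50, and CC50 was taken from multiplexed Cell Titer-Blue.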
For orientation: In antiviral work, replicon cells carry a viral genome segment that copies itself.

Assay [2] concerns HCV genotype 1b (Con1) replicon in HUH-7 cells. Description: HCV replicon luciferase reporter assay, genotype 1b. Type of assay: cell-based. To be noted: Hepatitis C virus, Huh-7, 72 h, HCV genotype 1b replicon luciferase, 3 days incubation, read-out: LE_1b (EC50, range). Put shortly: as §1

The structures appear in SMILES notation. Read-outs that look alike come from different tables or passages of the source.

On to `CC[C@@H]1C[C@H](C)CC/C=C\[C@@H]2C[C@@]2(C(=O)NS(=O)(=O)C2(CF)CC2)NC(=O)[C@@H]2C[C@@H](Oc3nccc4cc(OC)ccc34)CN2C(=O)[C@H]1NC(=O)OC(C)(C)C` [Compound 4204, tert-butyl (2R,6S,7R,9R,13aS,14aR,16aS,Z)-7-ethyl-14a-(1-(fluoromethyl)cyclopropylsulfonylcarbamoyl)-2-(6-methoxyisoquinolin-1-yloxy)-9-methyl-5,16-dioxo-1,2,3,5,6,7,8,9,10,11,13a,14,14a,15,16,16a-hexadecahydrocyclopropa[e]pyrrolo[1,2-a][1,4]diazacyclopentadecin-6-ylcarbamate], for which the EC50 in assay [1] and in assay [2] was less than 5.46 nM throughout.

With `CC[C@@H]1C[C@H](C)CC/C=C\[C@@H]2C[C@@]2(C(=O)NS(=O)(=O)C2(CF)CC2)NC(=O)[C@@H]2C[C@@H](Oc3nccc4cc(OC)ccc34)CN2C(=O)[C@H]1NC(=O)OC(C)(C)C(F)(F)F` [Compound 4205], the EC50 in assay [1] (GETYPE1A) and in assay [2] (GETYPE1B) was less than 5.46 nM in each case.

`CC[C@@H]1C[C@H](C)CC/C=C\[C@@H]2C[C@@]2(C(=O)NS(=O)(=O)C2(C)CC2)NC(=O)[C@@H]2C[C@@H](Oc3ncc(N4CCOCC4)c4cc(OC)ccc34)CN2C(=O)[C@H]1NC(=O)OC(C)(C)C(F)(F)F` [Compound 4206]: the EC50 in assay [1] (GETYPE1A) and in assay [2] (GETYPE1B) was less than 5.46 nM each time.

For the molecule `CC[C@@H]1C[C@@H](C)CC/C=C\[C@@H]2C[C@@]2(C(=O)NS(=O)(=O)C2(C)CC2)NC(=O)[C@@H]2C[C@@H](Oc3ncc(N4CCOCC4)c4cc(OC)ccc34)CN2C(=O)[C@H]1NC(=O)OC(C)(C)C(F)(F)F` [Compound 4207], the EC50 in assay [1] (GETYPE1A) and in assay [2] (GETYPE1B) was less than 5.46 nM throughout.

Take `CC[C@@H]1C[C@@H](C)CC/C=C\[C@@H]2C[C@@]2(C(=O)NS(=O)(=O)C2(C)CC2)NC(=O)[C@@H]2C[C@@H](Oc3ncc(OC)c4cc(OC)c(F)cc34)CN2C(=O)[C@H]1NC(=O)OC(C)(C)C(F)(F)F` [Compound 4208]: the EC50 is 4.82 to 103 nM in assay [1] (GETYPE1A) and less than 5.46 nM in assay [2] (GETYPE1B).

Consider `CC[C@@H]1C[C@H](C)CC/C=C\[C@@H]2C[C@@]2(C(=O)NS(=O)(=O)C2(C)CC2)NC(=O)[C@@H]2C[C@@H](Oc3cnc4ccc(OC)cc4n3)CN2C(=O)[C@H]1NC(=O)OC(C)(C)C(F)(F)F` [Compound 4219], for which the EC50 in assay [1] (GETYPE1A) and in assay [2] (GETYPE1B) was less than 5.46 nM each time.

Take `COc1ccc2nc(O[C@@H]3C[C@H]4C(=O)N[C@]5(C(=O)NS(=O)(=O)C6(CF)CC6)C[C@H]5/C=C\CC[C@@H](C)C[C@@H](C)[C@H](NC(=O)OC(C)(C)C)C(=O)N4C3)c(C)nc2c1` [Compound 4221, tert-butyl (2R,6S,7R,9R,13aS,14aR,16aS,Z)-14a-(1-(fluoromethyl)cyclopropylsulfonylcarbamoyl)-2-(6-methoxy-3-methylquinoxalin-2-yloxy)-7,9-dimethyl-5,16-dioxo-1,2,3,5,6,7,8,9,10,11,13a,14,14a,15,16,16a-hexadecahydrocyclopropa[e]pyrrolo[1,2-a][1,4]diazacyclopentadecin-6-ylcarbamate]: the EC50 in assay [1] and in assay [2] was less than 5.46 nM each time.

Turning to `COc1ccc2nc(C)c(O[C@@H]3C[C@H]4C(=O)N[C@]5(C(=O)NS(=O)(=O)C6(CF)CC6)C[C@H]5/C=C\CC[C@@H](C)C[C@@H](C)[C@H](NC(=O)OC(C)(C)C)C(=O)N4C3)nc2c1` [Compound 4222, tert-butyl (2R,6S,7R,9R,13aS,14aR,16aS,Z)-14a-(1-(fluoromethyl)cyclopropylsulfonylcarbamoyl)-2-(7-methoxy-3-methylquinoxalin-2-yloxy)-7,9-dimethyl-5,16-dioxo-1,2,3,5,6,7,8,9,10,11,13a,14,14a,15,16,16a-hexadecahydrocyclopropa[e]pyrrolo[1,2-a][1,4]diazacyclopentadecin-6-ylcarbamate], the EC50 in assay [1] and in assay [2] was less than 5.46 nM in each case.

On to `CC[C@@H]1C[C@H](C)CC/C=C\[C@@H]2C[C@@]2(C(=O)NS(=O)(=O)C2(C)CC2)NC(=O)[C@@H]2C[C@@H](Oc3ncc(OC4CC4)c4ccccc34)CN2C(=O)[C@H]1NC(=O)OC(C)(C)C(F)(F)F` [Compound 4223], for which the EC50 in assay [1] (GETYPE1A) and in assay [2] (GETYPE1B) was less than 5.46 nM throughout.

Consider `COc1cnc(O[C@@H]2C[C@H]3C(=O)N[C@]4(C(=O)NS(=O)(=O)C5(F)CC5)C[C@H]4/C=C\CC[C@@H](C)C[C@@H](C)[C@H](NC(=O)OC(C)(C)C)C(=O)N3C2)c2ccccc12` [Compound 4224], for which the EC50 in assay [1] and in assay [2] was less than 5.46 nM throughout.

For `C[C@@H]1CC/C=C\[C@@H]2C[C@@]2(C(=O)NS(=O)(=O)C2(F)CC2)NC(=O)[C@@H]2C[C@@H](Oc3ncc(OC4CC4)c4ccccc34)CN2C(=O)[C@@H](NC(=O)OC(C)(C)C)[C@H](C)C1` [Compound 4225, tert-butyl (2R,6S,7R,9R,13aS,14aR,16aS,Z)-2-(4-cyclopropoxyisoquinolin-1-yloxy)-14a-(1-fluorocyclopropylsulfonylcarbamoyl)-7,9-dimethyl-5,16-dioxo-1,2,3,5,6,7,8,9,10,11,13a,14,14a,15,16,16a-hexadecahydrocyclopropa[e]pyrrolo[1,2-a][1,4]diazacyclopentadecin-6-ylcarbamate], the EC50 in assay [1] and in assay [2] was less than 5.46 nM each time.

In the case of `CCOc1cnc(O[C@@H]2C[C@H]3C(=O)N[C@]4(C(=O)NS(=O)(=O)C5(C)CC5)C[C@H]4/C=C\CC[C@@H](C)C[C@@H](CC)[C@H](NC(=O)OC(C)(C)C(F)(F)F)C(=O)N3C2)c2ccc(OC)cc12` [Compound 4227], the EC50 in assay [1] (GETYPE1A) and in assay [2] (GETYPE1B) was less than 5.46 nM throughout.

On to `COc1ccc2c(O[C@@H]3C[C@H]4C(=O)N[C@]5(C(=O)NS(=O)(=O)C6(C)CC6)C[C@H]5/C=C\CC[C@@H](C)C[C@@H](C)[C@H](N)C(=O)N4C3)ncc(OC)c2c1` [Compound 4228, (2R,6S,7R,9R,13aS,14aR,16aS,Z)-6-amino-2-(4,6-dimethoxyisoquinolin-1-yloxy)-7,9-dimethyl-N-(1-methylcyclopropylsulfonyl)-5,16-dioxo-1,2,3,5,6,7,8,9,10,11,13a,14,14a,15,16,16a-hexadecahydrocyclopropa[e]pyrrolo[1,2-a][1,4]diazacyclopentadecine-14a-carboxamide], for which the EC50 in assay [1] and in assay [2] was less than 5.46 nM in each case.

With `COc1ccc2c(O[C@@H]3C[C@H]4C(=O)N[C@]5(C(=O)NS(=O)(=O)C6CC6)C[C@H]5/C=C\CC[C@H](C)C[C@@H](C)[C@H](NC(=O)OC(C)(C)C(F)(F)F)C(=O)N4C3)ncc(OC)c2c1` [Compound 4229], the EC50 in assay [1] (GETYPE1A) and in assay [2] (GETYPE1B) was less than 5.46 nM in each case.

In the case of `CCOc1cnc(O[C@@H]2C[C@H]3C(=O)N[C@]4(C(=O)NS(=O)(=O)C5(C)CC5)C[C@H]4/C=C\CC[C@H](C)C[C@@H](C)[C@H](NC(=O)OC(C)(C)C(F)(F)F)C(=O)N3C2)c2ccc(OC)cc12` [Compound 4230], the EC50 in assay [1] (GETYPE1A) and in assay [2] (GETYPE1B) was less than 5.46 nM throughout.

Consider `C=COc1cnc(O[C@@H]2C[C@H]3C(=O)N[C@]4(C(=O)NS(=O)(=O)C5(C)CC5)C[C@H]4/C=C\CC[C@@H](C)C[C@@H](C)[C@H](NC(=O)OC(C)(C)C(F)(F)F)C(=O)N3C2)c2ccc(OC)cc12` [Compound 4231], for which the EC50 in assay [1] (GETYPE1A) and in assay [2] (GETYPE1B) was less than 5.46 nM in each case.

Turning to `COc1cc2ccnc(O[C@@H]3C[C@H]4C(=O)N[C@]5(C(=O)NS(=O)(=O)C6(CF)CC6)C[C@H]5/C=C\CC[C@@H](C)C[C@@H](C)[C@H](N)C(=O)N4C3)c2cc1F` [Compound 4235, (2R,6S,7R,9R,13aS,14aR,16aS,Z)-6-amino-2-(7-fluoro-6-methoxyisoquinolin-1-yloxy)-N-(1-(fluoromethyl)cyclopropylsulfonyl)-7,9-dimethyl-5,16-dioxo-1,2,3,5,6,7,8,9,10,11,13a,14,14a,15,16,16a-hexadecahydrocyclopropa[e]pyrrolo[1,2-a][1,4]diazacyclopentadecine-14a-carboxamide], the EC50 in assay [1] and in assay [2] was 4.82 to 103 nM each time.

With `CC[C@@H]1C[C@H](C)CC/C=C\[C@@H]2C[C@@]2(C(=O)NS(=O)(=O)C2(C)CC2)NC(=O)[C@@H]2C[C@@H](Oc3ncc(OC)c4cc(OC)c(F)cc34)CN2C(=O)[C@H]1NC(=O)OC(C)(C)C(F)(F)F` [Compound 4236], the EC50 in assay [1] (GETYPE1A) and in assay [2] (GETYPE1B) was less than 5.46 nM in each case.

For `CC[C@@H]1C[C@H](C)CC/C=C\[C@@H]2C[C@@]2(C(=O)NS(=O)(=O)C2(C)CC2)NC(=O)[C@@H]2C[C@@H](Oc3ncc(N4CCOCC4)c4cc(OC)c(F)cc34)CN2C(=O)[C@H]1NC(=O)OC(C)(C)C(F)(F)F` [Compound 4237], the EC50 in assay [1] (GETYPE1A) and in assay [2] (GETYPE1B) was less than 5.46 nM in each case.

Turning to `COc1cc2c(OC)cnc(O[C@@H]3C[C@H]4C(=O)N[C@]5(C(=O)NS(=O)(=O)C6(CO)CC6)C[C@H]5/C=C\CC[C@@H](C)C[C@@H](C)[C@H](NC(=O)OC(C)(C)C(F)(F)F)C(=O)N4C3)c2cc1F` [Compound 4238], the concentration giving a half-maximal response (EC50) in assay [1] (GETYPE1A) and in assay [2] (GETYPE1B) was 4.82 to 103 nM throughout.

With `CC[C@@H]1C[C@H](C)CC/C=C\[C@@H]2C[C@@]2(C(=O)NS(=O)(=O)C2CC2)NC(=O)[C@@H]2C[C@@H](Oc3ncnc4cc(OC)ccc34)CN2C(=O)[C@H]1NC(=O)OC(C)(C)C` [Compound 4239, tert-butyl ((2R,6S,7R,9R,13aS,14aR,16aS,Z)-14a-((cyclopropylsulfonyl)carbamoyl)-7-ethyl-2-((7-methoxyquinazolin-4-yl)oxy)-9-methyl-5,16-dioxo-1,2,3,5,6,7,8,9,10,11,13a,14,14a,15,16,16a-hexadecahydrocyclopropa[e]pyrrolo[1,2-a][1,4]diazacyclopentadecin-6-yl)carbamate], the EC50 in assay [1] and in assay [2] was less than 5.46 nM throughout.
